Here are results for six compounds from patent US9120749B2, “Quinoline derivatives and MELK inhibitors containing the same” (ONCOTHERAPY SCIENCE, INC., priority 2010, dated 2015).

For test [1], the target named is MELK (Homo sapiens, UniProt Q14680). The experiment in a line: Kinase assay: MELK activity, phosphorylation of FITC-labeled histone H3 peptide measured by IMAP fluorescence polarization. It counts as biochemical. Particulars: MELK kinase assay, IMAP fluorescence polarization, 50 micro-M ATP; read-out: IC50 (μM) (kinase assay). An outline of the steps:
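Compounds, serially diluted from 12.5 mM DMSO stocks to 1% final DMSO, were tested with FITC-labeled histone H3 peptide as substrate. The reaction was stopped with progressive binding solution. Fluorescence polarization was read after 0.5 hour at room temperature.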
A general note: Fluorescence polarisation rises when a labelled molecule tumbles more slowly, as on binding a larger partner.

For test [2], the system named is T47D cells. The experiment in a line: Cell-based assay: anti-proliferative activity, Cell Counting Kit-8, 72 hours (T47D). As to conditions: Homo sapiens, T47D, 72 h. An outline of the steps:
(§1)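 Anti-MELK western blot on crude lysates → MELK status per line. Cells plated 96-well, compound exposure, CCK-8 readout at 72 h; IC50 calculated.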
On the technique in general: Tetrazolium dyes change colour on reduction, which living cells bring about.

Test [3] deals with A549 cells. The experiment in a line: Cell-based assay: anti-proliferative activity, Cell Counting Kit-8, 72 hours (A549). Particulars: Homo sapiens, A549, 72 h, 72 hours. An outline of the steps: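 A549 cells seeded in 96-well plates and exposed to candidate inhibitors for 72 hours. Growth measured with Cell Counting Kit-8; IC50 values calculated from the dose response.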
Test [4] deals with HT-1197 cells. The experiment in a line: Cell-based assay: anti-proliferative activity, Cell Counting Kit-8, 72 hours (HT-1197, negative control without MELK expression). As to conditions: Homo sapiens, HT1197, 72 h, HT1197 cells (negative control), 72 hours. An outline of the steps:
as §1

The subject of test [5] is 22Rv1 cells. The experiment in a line: Cell-based assay: anti-proliferative activity, Cell Counting Kit-8, 72 hours (22Rv1). Particulars: Homo sapiens.
Test [6] has as its system DU4475 cells. The experiment in a line: Cell-based assay: anti-proliferative activity, Cell Counting Kit-8, 72 hours (DU4475). Particulars: Homo sapiens, DU-4475.

SMILES strings stand for the structures. Where a name gives a salt, the structure may show the parent alone.

Sequence of MELK (Q14680 whole entry, looked up): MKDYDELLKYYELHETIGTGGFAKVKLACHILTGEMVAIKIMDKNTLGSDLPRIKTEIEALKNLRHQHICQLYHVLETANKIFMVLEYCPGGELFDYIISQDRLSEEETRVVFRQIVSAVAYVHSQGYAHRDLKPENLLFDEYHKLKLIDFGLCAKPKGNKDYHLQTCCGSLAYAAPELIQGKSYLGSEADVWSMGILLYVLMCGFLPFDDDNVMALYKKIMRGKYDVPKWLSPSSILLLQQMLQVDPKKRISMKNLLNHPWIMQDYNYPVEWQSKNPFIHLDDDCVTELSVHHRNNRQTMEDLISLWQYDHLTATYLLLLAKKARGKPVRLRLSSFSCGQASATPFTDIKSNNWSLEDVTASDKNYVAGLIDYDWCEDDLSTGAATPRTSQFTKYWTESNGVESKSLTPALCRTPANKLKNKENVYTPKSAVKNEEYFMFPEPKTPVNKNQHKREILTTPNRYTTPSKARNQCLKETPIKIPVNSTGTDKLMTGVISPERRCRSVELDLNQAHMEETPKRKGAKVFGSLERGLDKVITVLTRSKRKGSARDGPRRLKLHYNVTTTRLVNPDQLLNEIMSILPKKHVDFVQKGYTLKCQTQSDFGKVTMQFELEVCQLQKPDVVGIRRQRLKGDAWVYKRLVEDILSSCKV

Take `CC(N)C(=O)N[C@H]1CC[C@H](Nc2c(C(=O)C(C)(C)C)cnc3ccc(-c4cc(F)c(O)c(Cl)c4)cc23)CC1` (stereo partly drawn) [Example 932, 2-amino-N-(1R,4R)-4-((6-(3-chloro-5-fluoro-4-hydroxyphenyl)-3-pivaloyl-quinolin-4-yl)amino)cyclohexyl) propanamide hydrochloride]: the IC50 in test [1] was determined as 0.047 µM; in test [2] it was 0.71 µM; in test [3], 4.7 µM; in test [4] it was 7.6 µM; in test [5], 1.6 µM; in test [6], 1 µM.

Take `CN(C)CCOc1ccc(Nc2c(S(C)(=O)=O)cnc3ccc(-c4cc(Cl)c(O)c(Cl)c4)cc23)cn1` [Example 884, 2,6-dichloro-4-(4-((6-(2-(dimethylamino)ethoxy)pyridin-3-yl)amino)-3-(methylsulfonyl)quinolin-6-yl)phenol hydrochloride]: the IC50 in test [1] is 0.0035 µM; in test [2], 0.91 µM; in test [3], 2.1 µM; in test [4] it was 13 µM; in test [5] it was 4.1 µM; in test [6] it was 0.51 µM.

`CC(=O)c1cnc2cc(F)c(-c3cc(F)c(O)c(Cl)c3)cc2c1N[C@H]1CC[C@H](CN2CCCC2)CC1` [Example 925, 1-(6-(3-chloro-5-fluoro-4-hydroxy-phenyl)-7-fluoro-4-((1R,4R)-4-(pyrrolidin-1-ylmethyl)cyclohexyl)amino)quinolin-3-yl)ethanone hydrochloride]: the IC50 turned out to be 0.019 µM in test [1]; 0.52 µM in test [2]; 0.38 µM in test [3]; 1.5 µM in test [4]; 0.27 µM in test [5]; 0.27 µM in test [6].

`CC(=O)c1cnc2cc(C)c(-c3cc(Cl)c(O)c(Cl)c3)cc2c1Nc1ccc(N2CCN(C)CC2)nc1` [Example 866, 1-(6-(3,5-dichloro-4-hydroxyphenyl)-7-methyl-4-((6-(4-methylpiperazin-1-yl)pyridin-3-yl)amino)quinolin-3-yl)ethanone hydrochloride]: the IC50 in test [1] is 0.34 µM; in test [2], 2.4 µM; in test [3], 2.3 µM; in test [4] it was 4.5 µM; in test [5], 4.1 µM; in test [6] it was 2.9 µM.

For `CC(=O)c1cnc2ccc(-c3ccc4nc[nH]c4c3)cc2c1Nc1cnn(C2CCN(C)CC2)c1` [Example 895, 1-(6-(1H-benzo[d]imidazol-6-yl)-4-((1-(1-methylpiperidin-4-yl)-1H-pyrazol-4-yl)amino)quinolin-3-yl)ethanone hydrochloride], the IC50 stood at 0.065 µM in test [1]; 0.94 µM in test [2]; 4 µM in test [3]; 9.3 µM in test [4]; 2.2 µM in test [5]; 9.1 µM in test [6].

As for `CS(=O)(=O)c1cnc2ccc(-c3cc(F)c(O)c(Cl)c3)cc2c1Nc1cccc(CCN2CCCC2)c1` [Example 879, 2-chloro-6-fluoro-4-(3-(methylsulfonyl)-4-((3-(2-(pyrrolidin-1-yl)ethyl)phenyl)amino)quinolin-6-yl)phenol hydrochloride], the IC50 in test [1] is 0.011 µM; in test [2], 1.1 µM; in test [3] it was 3.8 µM; in test [4] it was 9 µM; in test [5] it was 3 µM; in test [6], 0.9 µM.

A word on the IC50: it is the point on the concentration scale where inhibition reaches its midpoint.
